Measured values: patent US20240343666A1, “PERINAPHTHENONE COMPOUND AND USE THEREOF” (INSTITUTE OF MEDICINAL BIOTECHNOLOGY, CHINESE ACADEMY OF …, priority 2021, published 2024)

Target: TRIM25 (Homo sapiens, UniProt Q14258)
Assay type: cell-based
Parameters: endogenous in cells

Sequence of TRIM25 (Q14258 whole entry, species assumed): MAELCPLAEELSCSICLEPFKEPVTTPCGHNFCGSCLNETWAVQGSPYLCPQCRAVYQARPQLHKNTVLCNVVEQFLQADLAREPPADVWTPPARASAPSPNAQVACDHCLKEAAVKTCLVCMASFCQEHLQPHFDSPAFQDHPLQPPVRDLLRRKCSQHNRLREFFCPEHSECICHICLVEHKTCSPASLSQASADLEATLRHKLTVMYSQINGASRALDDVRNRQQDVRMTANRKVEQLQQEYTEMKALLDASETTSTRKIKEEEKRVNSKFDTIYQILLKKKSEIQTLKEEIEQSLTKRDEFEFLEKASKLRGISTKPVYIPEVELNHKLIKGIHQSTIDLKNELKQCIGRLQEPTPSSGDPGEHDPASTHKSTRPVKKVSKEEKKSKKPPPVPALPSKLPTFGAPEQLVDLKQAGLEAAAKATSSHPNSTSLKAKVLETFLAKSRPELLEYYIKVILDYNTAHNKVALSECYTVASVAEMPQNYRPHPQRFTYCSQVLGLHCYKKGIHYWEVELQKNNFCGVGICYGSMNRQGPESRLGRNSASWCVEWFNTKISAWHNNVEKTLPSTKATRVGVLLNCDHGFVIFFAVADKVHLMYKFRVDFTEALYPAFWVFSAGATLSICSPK

C/C(=C\CC/C(C)=C/C[C@]1(O)C(=O)c2c(O)cc(C)c3c(O)c(C)c(O)c(c23)C1=O)CC/C=C(\CO)CC[C@@H](O)C(C)(C)O [Compound C1]
Anti-influenza activity after TRIM25 knockdown: significantly affected
Anti-influenza activity on overexpression of TRIM25 in TRIM25 knockout cell line: restore the anti-influenza activity of compound C1 to a normal cell level
